{
  "source": "paper PMC7529580",
  "about": "“Modified heptapeptide from tau binds both tubulin and microtubules” (Thoracic Cancer, 2020)",
  "key": {"[1]": {"test_system": "microtubules in living cells", "settings": "cited from earlier work; for labeling of microtubules in living cells (in words): microtubule‐targeting agents", "source_text": "The property of microtubules is regulated by a number of microtubule‐binding proteins, ^8 , ^9 , ^10 , ^11 , ^12 , ^13 of which tau is well‐characterized because of its abundance, particularly in brain tissues. ^14 , ^15 , ^16 The N‐terminus of tau is a projection domain, followed by a proline‐rich region and a C‐terminal microtubule‐assembly domain. ^17 The microtubule‐assembly domain, which contains four imperfect sequence repeats, is responsible for the binding of tau to microtubules. […] In this study, we tested another tau‐derived peptide for its ability to monitor microtubules."}, "microtubules": {"test_system": "microtubules", "design": "method as in 2 sources, ref 26 = [26]; PMID 9190213; doi:10.1091/mbc.8.2.353; 26 Goode BL , Denis PE , Panda D et al Functional interactions between the proline‐rich and repeat regions of tau enhance microtubule binding and assembly . Mol Biol Cell 1997; 8 : 353 – 65 . 9190213 ||| ref 27 = [27]; PMID 19186939; doi:10.1021/bm801224q; 27 Cao B , Mao C . Identification of microtubule‐binding domains on microtubule‐associated proteins by major coat phage display technique . Biomacromolecules 2009; 10 : 555 – 64 . 19186939 10.1021/bm", "settings": "cited from earlier work"}, "[2]": {"test_system": "microtubules in HeLa cells", "experiment": "Living cell assay: tracing of microtubules", "assay_type": "cell-based", "settings": "15 μM peptide, 30 minutes, Hoechst 33258, fluorescence microscope", "protocol": "(§1) HeLa cells were cultured in Dulbecco's modified Eagle's medium supplemented with 10% fetal bovine serum and maintained at 37°C in a humidified 5% CO2 environment. The peptide was added into the Hela cells, and incubated for 30 minutes. The nuclei were stained with Hoechst 33258 (Beyotime). Cells were imaged with a fluorescence microscope (Leica, Germany).  Figure 4 Examination of the peptide in tracing microtubules in living cells. HeLa cells were treated with 15 μM of the peptide or control peptide, together with Hoechst 33258, and 30 minutes later, the cells were imaged with a fluorescence microscope. Scale bar: 5 μm."}, "tubulin dimers": {"test_system": "tubulin dimers", "experiment": "Microscale thermophoresis affinity determination", "assay_type": "binding", "settings": "1 μM peptide, series dilution of tubulin", "protocol": "All microscale thermophoresis measurements were performed using Monolith NTTM hydrophobic capillaries and a Monolith NT.115 instrument (NanoTemper) according to the manufacturer's instructions. The peptide was prepared with varying concentrations for pretest to ensure final proper concentration. The fluorescence intensity value should be more than 200. A series of dilution of the tubulin dimers was then added into the capillaries. The affinity of the peptide to tubulin dimers was examined using the Monolith NT.115 instrument.\n(§2) Tubulin from HeLa cells was purified using a TOG‐based affinity column. ^20 Briefly, cells were resuspended in an equal volume of BRB80 buffer containing 3 μL of benzonase and 1 mM DTT. Cells were lysed on ice and centrifuged at 40 000 rpm for 30 minutes at 4°C. The supernatant was filtered through a 0.45 μm Milliex‐HV polyvinylidene fluoride membrane, and then loaded into a TOG column preequilibrated with BRB80 buffer. The tubulin was eluted with BRB80 buffer, and the crude extract was further purified through the cycle of polymerization and depolymerization as previously described. ^22\nFigure 2 Affinity determination of the peptide to tubulin. 1 μM of the peptide and a series dilution of tubulin were added into the capillary tube, and the fluorescence intensity was then determined by a Monolith NT.115 instrument."}, "polymerized microtubules": {"test_system": "polymerized microtubules", "experiment": "Labeling of polymerized microtubules in solution (fluorescence microscopy)", "assay_type": "binding", "settings": "1 μM peptide added to polymerized rhodamine‐labeled microtubules, five minutes incubation, fluorescence microscope", "protocol": "as §2\nRhodamine‐labeled tubulin (5%) was mixed into tubulin purified from HeLa cells in the PEMG buffer (100 mM PIPES, 1 mM EGTA, 1 mM MgSO4, 1 mM GTP, pH 6.8). Next, the mixture was placed on ice for five minutes and then incubated at 37°C for 30 minutes. The polymerized reaction was terminated by adding 400 μL of PEMG buffer. […] The pellet was resuspended with 300 μL of the PEMG buffer supplemented with 20 μM paclitaxel and then added into a slide chamber for imaging under a fluorescence microscope.\nFigure 3 The peptide was able to label the microtubules in solution. (a) The tubulin was purified from HeLa cells through cycle process, and the purity was determined by SDS‐PAGE. […] After five minutes incubation, the microtubule was imaged under a fluorescence microscope. […]"}, "HeLa cells": {"test_system": "HeLa cells", "experiment": "Living cell assay: entry of peptide into cells", "assay_type": "cell-based", "settings": "15 μM peptide, 30 minutes, Hoechst 33258, fluorescence microscope", "protocol": "as §1"}, "[3]": {"biological_target": "fluorescent tau-derived peptide (FITC-Ahx-(rR)3R2-GGG-KKVAVVR)", "experiment": "MST; 1 μM of the fluorescent peptide constant, a series dilution of tubulin dimers; Monolith NT.115, hydrophobic capillaries"}},
  "note": "Entries after “also recorded” stand apart in the source; their conditions may differ. Read-outs that look alike come from different tables or passages of the source. Non-standard residues stand in square brackets, D forms with d. No end group written: not given here. *: point of attachment. FITC = O=C1OC2(c3ccc(O)cc3Oc3cc(O)ccc32)c2ccc(NC(=S)*)cc21; Ahx = NCCCCCC(=O)O",
  "data": [
    {"compound": "N=C(N)c1ccc(-c2cc3ccc(C(=N)N)cc3[nH]2)cc1", "note": "[4',6‐diamidino‐2‐phenylindole (DAPI), 4',6‐diamidino‐2‐phenylindole]", "values": [
      {"measurement": "tracing microtubules in living cells (in words)", "setting": "[1]; due to the lack of specificity and the complexity of cellular contents", "result": "unable to trace microtubules in living cells"}
    ]},
    {"compound": "COc1cc2c(c(OC)c1OC)-c1ccc(OC)c(=O)cc1[C@@H](NC(C)=O)CC2", "note": "[colchicine]", "values": [
      {"measurement": "labeling of microtubules in living cells (in words)", "setting": "[1]", "result": "able to label microtubules in living cells"}
    ]},
    {"compound": "CC(=O)O[C@H]1C(=O)[C@@]2(C)[C@H]([C@H](OC(=O)c3ccccc3)[C@]3(O)C[C@H](OC(=O)[C@H](O)[C@@H](NC(=O)c4ccccc4)c4ccccc4)C(C)=C1C3(C)C)[C@]1(OC(C)=O)CO[C@@H]1C[C@@H]2O", "note": "[taxol]", "values": [
      {"measurement": "labeling of microtubules in living cells (in words)", "setting": "[1]", "result": "able to label microtubules in living cells"}
    ]},
    {"compound": "KKVAVVR", "values": [
      {"measurement": "microtubule binding (in words)", "setting": "microtubules; small sequence within the proline‐rich region of tau", "result": "critical for efficient microtubule binding"}
    ]},
    {"compound": "KKVAVVRTPP", "values": [
      {"measurement": "microtubule binding (in words)", "setting": "microtubules; peptide with VxxVxxP motif", "result": "able to bind microtubules"}
    ]},
    {"compound": "tau‐derived peptide: FITC dye, cell‐penetrating peptide (rR)3R2, spacer (GGG), microtubule recognition unit (KKVAVVR), with aminohexanoic (Ahx) acid ({FITC-Ahx}-[dR]R[dR]R[dR]RRRGGGKKVAVVR)", "values": [
      {"measurement": "tracing of microtubule filaments in living cells (in words)", "setting": "[2]", "result": "no clear microtubule filaments were observed"},
      {"measurement": "binding to tubulin dimers (in words)", "setting": "tubulin dimers", "result": "specifically bound to tubulin"},
      {"measurement": "binding to tubulin dimers (in words)", "setting": "tubulin dimers; listed as the peptide", "result": "bound tubulin dimers in a dose‐dependent manner; also recorded: relatively low affinity"},
      {"measurement": "disassociation constant (Kd) of the peptide with tubulin", "setting": "tubulin dimers; Monolith NT.115, hydrophobic capillaries", "result": "4.68 ± 0.08", "unit": "µM"},
      {"measurement": "labeling of microtubules in solution / binding to microtubules (in words)", "setting": "polymerized microtubules; listed as modified heptapeptide from tau", "result": "binds microtubules specifically and noncovalently"},
      {"measurement": "labeling of microtubules in solution / binding to microtubules (in words)", "setting": "polymerized microtubules; listed as the peptide", "result": "able to successfully label the microtubules in solution"},
      {"measurement": "entry into living cells (in words)", "setting": "HeLa cells", "result": "delivered successfully into HeLa cells"}
    ]},
    {"compound": "tubulin dimers purified from HeLa cells (from UniProt P68363 1-451; P07437 1-444) (complex)", "values": [
      {"measurement": "Kd", "setting": "[3]", "result": 4.68, "unit": "µM"}
    ]}
  ]
}
